The target of assay [1] is T1, Carboxypeptidase A1 (Bos taurus) (UniProt P00730).
T1 sequence (whole entry): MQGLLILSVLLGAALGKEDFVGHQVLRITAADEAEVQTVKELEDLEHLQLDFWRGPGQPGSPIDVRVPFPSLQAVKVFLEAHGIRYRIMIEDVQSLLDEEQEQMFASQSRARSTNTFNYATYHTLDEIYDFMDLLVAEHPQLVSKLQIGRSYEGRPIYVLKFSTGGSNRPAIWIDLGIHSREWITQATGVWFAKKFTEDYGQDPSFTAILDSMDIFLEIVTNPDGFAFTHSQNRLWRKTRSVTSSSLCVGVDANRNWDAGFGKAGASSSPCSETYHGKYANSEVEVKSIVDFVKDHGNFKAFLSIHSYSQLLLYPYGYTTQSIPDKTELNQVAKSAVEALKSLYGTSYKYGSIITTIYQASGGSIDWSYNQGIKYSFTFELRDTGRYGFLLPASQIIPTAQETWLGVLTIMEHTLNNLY
In words: Inhibition of bovine ZnCPD pretreated for 200 seconds at 1.5 mM assessed as transfer of zinc(II) from ZnCPD to chelator 4-(2-pyridylazo)-resorcinol. Set-up: scale not given: the % may be the effect or the level left.

Assay [2] deals with T1, Carboxypeptidase A1 (Bos taurus). In words: Inhibition of bovine ZnCPD pretreated at 5 mM assessed as residual enzyme activity in presence of 1 mM ethylenediaminetetraacetic acid within 7 mins.
Assay [3] has the same target. In words: Inhibition of bovine ZnCPD pretreated at 0.25 mM assessed as residual enzyme activity in presence of 2.5 uM thionenin after 17 mins.
For assay [4] the target is unchanged. In words: Inhibition of bovine ZnCPD pretreated at 0.25 mM assessed as residual enzyme activity in presence of 1 mM ethylenediaminetetraacetic acid within 20 mins.

This is an account of results in ChEMBL document CHEMBL1137601, “Catalysis of zinc transfer by D-penicillamine to secondary chelators” (J Med Chem, 2007).

As for `CC(C)(S)[C@@H](N)C(=O)O`, the Activity in assay [1] was 45%; in assay [2] it was 0.1%; in assay [3], 1.5%; in assay [4] it was 1%.
